Where two headings read alike, the source gives them in different places.
Columns and labels:
h5-HT2C = target: T1, h5-HT2C (Homo sapiens, UniProt P28335); assay: biochemical; format: binding
T1 sequence (P28335 33-458): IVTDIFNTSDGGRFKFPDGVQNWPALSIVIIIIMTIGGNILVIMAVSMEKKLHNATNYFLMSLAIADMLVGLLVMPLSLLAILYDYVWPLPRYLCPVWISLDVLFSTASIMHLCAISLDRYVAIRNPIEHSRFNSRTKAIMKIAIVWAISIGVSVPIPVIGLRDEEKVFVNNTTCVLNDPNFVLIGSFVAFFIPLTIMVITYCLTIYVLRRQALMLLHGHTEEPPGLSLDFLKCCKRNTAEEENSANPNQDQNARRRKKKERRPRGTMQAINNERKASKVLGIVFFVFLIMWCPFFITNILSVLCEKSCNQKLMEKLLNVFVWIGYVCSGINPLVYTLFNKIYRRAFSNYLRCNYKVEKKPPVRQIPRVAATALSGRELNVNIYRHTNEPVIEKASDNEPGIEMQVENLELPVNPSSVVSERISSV

C57BL/6 J mice [1] = assay: Head-twitch response (HTR) dose-response in mice, 30-min session; format: in vivo, mouse; conditions: for HTR (count/30 min): mean ± SEM; for ED50: Mus musculus, sc, 0.5 h, read-out: HTR in mice ED50 (95% CI), ascending phase of dose-response curve
Experimental: (§1) Behavioral studies were conducted as previously described with minor modifications. Male C57BL/6 J mice (The Jackson Laboratory #000664, 24 mice/drug) were purchased at 8 weeks old, group housed for acclimation (3–5 per cage for 1–2 weeks) under a 12:12 light:dark cycle (07:00 local time = lights on), with ad libitum access to food and water at the NIDA IRP facilities in Baltimore, MD, USA. All experiments were approved by the NIDA IRP Animal Care and Use Committee. After acclimation to the vivarium facilities, each mouse was briefly anesthetized with isoflurane and a temperature transponder (14 × 2 mm, model IPTT-300, Bio Medic Data Systems, Inc., Seaford, DE, USA) was implanted subcutaneously (s.c.) on the back, posterior to the shoulder blades. After the implant, mice were single housed and allowed one week recovery prior to the start of experiments. […] Drugs were randomly assigned and administered s.c. as the weight of the form used at an injection volume of 0.01 mL/g body weight.
(§2) During experimental testing, mice were tested once every 1–2 weeks to avoid potential tolerance to behavioral effects of the test drugs and were tested 2–3 times in total per drug. Each test session began with a brief 5 min acclimation period to the testing arenas, followed by recording baseline body temperature using a handheld wand that was sensitive to the signals emitted from the s.c. transponder. After this, mice were injected s.c. with appropriate doses of test drug and returned to the chambers for a 30-min test session. During the dose-response sessions, locomotor activity was continuously recorded using open field chambers with photobeam arrays (Coulbourn Instruments, Holliston, MA, USA) that were modified with cylindrical inserts and custom floor panels that also allowed video recordings of each mouse to later quantify HTR activity (GoPro Hero 7 camera; 960p resolution at 120 frames per second). Videos for each mouse were analyzed post session using commercially available software used to quantify HTR as previously described.
(§3) Data analysis was performed with Prism software (version 10.1.2, GraphPad Software, Boston, MA, USA). The IC50 values from the radioligand binding assays were determined by nonlinear regression, using three independent concentration-response curves fitted to a one-site model. The Cheng-Prusoff equation was used to calculate Kᵢ values for the competing ligands. EC50 values were determined by applying nonlinear regression to concentration-response curves. Bias factors (β) were calculated based on the relative intrinsic activity approach. More detailed information can be found in the Supplementary information. Mean values for total number of HTR, change in body temperature from pre to post session (Δ°C), and total distance traveled (cm) for each drug dose were compared (p < 0.05) via Welch’s ANOVA with Dunnett’s T3 post test, comparing all doses to respective vehicle controls (0 mg/kg). Welch’s ANOVA with Dunnett’s T3 post test was also used to compare drug concentrations, but the data were compared to DOM in this case. Dose–response relationships for HTR and locomotor activities were plotted using bell-shaped curve fits, while temperature change data were plotted using four-parameter non-linear regression curve fits. The ascending phase of the HTR curve for each drug was used to determine ED50 potency values from four parameter non-linear regression fits. For combined DOM and DOAM administration, the plasma, brain tissue, and brain dialysate drug concentrations were compared using paired t-tests (p < 0.05). Ratios were compared using Holm-Sidak’s post hoc test following a repeated-measures one-way ANOVA (F (1.709, 6.835) = 70.80; p < 0.0001).
(§4) Locomotor activity and body temperature were also assessed to monitor other pharmacological effects of the drugs that may impact the HTR. […]

C57BL/6 J mice [2] = assay: HTR after single fixed doses prior to brain and blood collection (20 min); format: in vivo, mouse; conditions: single s.c. dose: DOM 3, DOPR 1, DOBU 3, DOAM 10, 2,5-DMA 10 mg/kg
Experimental: In these experiments, HTR activity was monitored for 20 min, followed by cardiac puncture and decapitation. Whole blood (~ 300–500 µL per sample) was collected via cardiac puncture, placed in tubes containing 10 µL of heparin (1000 IU/mL), and immediately stored on ice until centrifugation. Blood samples were spun at 3300 rpm at 4 °C and plasma was decanted into vials on dry ice until storage at -80 °C. Whole brains were collected immediately after cardiac puncture. Brains were frozen on dry ice, weighed, then placed into 7-mL homogenizing tubes with ceramic beads, and stored at -80 °C.
as §3, with “For combined DOM and DOAM administration, the plasma, brain tissue, and brain dialysate drug concentrations were compared using paired t-tests (p < 0.05). Ratios were compared using Holm-Sidak’s post hoc test following a repeated-measures one-way ANOVA (F (1.709, 6.835) = 70.80; p < 0.0001).” left out

C57BL/6 J mice [3] = assay: Locomotor activity in mice (dose-response sessions); format: in vivo, mouse; conditions: 30-min session, mean ± SEM
Experimental: as §1, §2, §3, §4

h5-HT2A = h5-HT2A (Homo sapiens, UniProt P28223); assay: biochemical; format: binding; set-up: expressed in transfected cells; host or cells: HEK 293 cells (membrane preparation)
h5-HT2A, sequence (P28223 whole entry, looked up): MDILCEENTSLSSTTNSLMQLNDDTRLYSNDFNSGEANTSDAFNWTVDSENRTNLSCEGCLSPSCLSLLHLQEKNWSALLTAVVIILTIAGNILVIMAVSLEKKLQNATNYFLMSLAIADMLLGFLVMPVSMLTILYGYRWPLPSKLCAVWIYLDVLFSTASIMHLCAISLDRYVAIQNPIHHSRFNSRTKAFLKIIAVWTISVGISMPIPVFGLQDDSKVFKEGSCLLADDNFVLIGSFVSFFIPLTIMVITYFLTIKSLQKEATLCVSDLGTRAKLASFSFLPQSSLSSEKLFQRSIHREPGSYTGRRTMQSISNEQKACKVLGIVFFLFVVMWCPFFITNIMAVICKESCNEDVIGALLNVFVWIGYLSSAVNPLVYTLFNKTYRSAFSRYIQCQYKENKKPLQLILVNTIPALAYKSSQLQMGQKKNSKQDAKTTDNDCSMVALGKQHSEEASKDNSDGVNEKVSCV

Row | Compound | Ki (h5-HT2C) [µM] | HTR (count/30 min) (C57BL/6 J mice [1]; 0.03 mg/kg s.c.) [count] | HTR (count/30 min) (C57BL/6 J mice [1]; 0.1 mg/kg s.c.) [count] | HTR (count/30 min) (C57BL/6 J mice [1]; 0.3 mg/kg s.c.) [count] | HTR (count/30 min) (C57BL/6 J mice [1]; 1 mg/kg s.c.) [count] | HTR (count/30 min) (C57BL/6 J mice [1]; 3 mg/kg s.c.) [count] | HTR (count/30 min) (C57BL/6 J mice [1]; 10 mg/kg s.c.) [count] | HTR (count/30 min) (C57BL/6 J mice [1]; 30 mg/kg s.c.) [count] | ED50 (C57BL/6 J mice [1]; s.c., 30 min session) [mg/kg] | HTR in mice Emax (C57BL/6 J mice [1]; s.c., 30 min session) [total HTR count] | HTR in mice Maximum rate (C57BL/6 J mice [1]; s.c., 30 min session) [HTR count/5 min] | HTR (C57BL/6 J mice [2]) [count/20 min] | Locomotor activity (distance traveled) (C57BL/6 J mice [3]; 0.03 mg/kg s.c.) | Locomotor activity (distance traveled) (C57BL/6 J mice [3]; 0.1 mg/kg s.c.) | Locomotor activity (distance traveled) (C57BL/6 J mice [3]; 0.3 mg/kg s.c.) | Locomotor activity (distance traveled) (C57BL/6 J mice [3]; 1 mg/kg s.c.) | Locomotor activity (distance traveled) (C57BL/6 J mice [3]; 3 mg/kg s.c.) | Locomotor activity (distance traveled) (C57BL/6 J mice [3]; 10 mg/kg s.c.) | Locomotor activity (distance traveled) (C57BL/6 J mice [3]; 30 mg/kg s.c.) | Ki (h5-HT2A) [µM] | also measured
1 | COc1ccc(OC)c(CC(C)N)c1.Cl (centres unmarked) [2,5-DMA, 2,5-Dimethoxyamphetamine hydrochloride] | > 5 | 5.8 ± 1.9 | 6.7 ± 0.7 | 7.3 ± 1.2 | 11.7 ± 2.1 | 15.3 ± 0.6 | 23.2 ± 1.9 | 16.2 ± 5.0 | 1.39 | 23 | 5 | 19 | 2,854 ± 266 cm | 2,763 ± 284 cm | 2,584 ± 157 cm | 2,630 ± 184 cm | 2,780 ± 415 cm | 1,801 ± 171 cm | 1,169 ± 214 cm | – | –
2 | CCCCCc1cc(OC)c(CC(C)N)cc1OC (centres unmarked) [DOAM, 4-amyl-2,5-dimethoxyamphetamine] | 0.075 | 7.8 ± 1.6 | 6.2 ± 1.6 | 6.5 ± 1.2 | 9.5 ± 1.2 | 28.5 ± 2.6 | 44.8 ± 3.6 | 26.0 ± 3.7 | 2.76 | 45 | 9 | 30 | 2,867 ± 167 cm | 2,677 ± 103 cm | 2,307 ± 244 cm | 2,421 ± 129 cm | 2,884 ± 249 cm | 3,433 ± 325 cm | 1,724 ± 138 cm | 0.0035 | Selectivity (binding ratios) 5-HT2A/5-HT1A (h5-HT2A; ratio of Ki values): 2407; Selectivity (binding ratios) 5-HT2A/5-HT2B (h5-HT2A; ratio of Ki values): 28; Selectivity (binding ratios) 5-HT2A/5-HT2C (h5-HT2A; ratio of Ki values): 21
3 | CCc1cc(OC)c(CC(C)N)cc1OC (centres unmarked) [DOET, 4-ethyl-2,5-dimethoxyamphetamine] | – | – | – | – | – | – | – | – | – | – | – | – | – | – | – | – | – | – | – | 0.012 | –
4 | COc1cc(CC(C)N)c(OC)cc1C (centres unmarked) [DOM, 4-methyl-2,5-dimethoxyamphetamine] | – | 10.2 ± 1.9 | 23.4 ± 2.1 | 39.0 ± 3.3 | 90.0 ± 4.4 | 119.2 ± 9.7 | 88.0 ± 18.1 | 13.7 ± 3.9 | 0.66 | 119 | 24 | – | 2,696 ± 154 cm | 2,522 ± 203 cm | 3,051 ± 367 cm | 4,272 ± 215 cm | 3,556 ± 278 cm | 2,186 ± 443 cm | 606 ± 47 cm | 0.066 | Fold higher total HTR counts of DOM vs DOAM (C57BL/6 J mice [1]; mouse, in vivo): 2.6 fold; Peak HTR rate (C57BL/6 J mice [1]; s.c., 30 min session): 24 events/5 min; Time of peak HTR rate post drug administration (C57BL/6 J mice [1]; s.c., 30 min session): 5 to 10 min
5 | CCCc1cc(OC)c(CC(C)N)cc1OC.Cl (centres unmarked) [DOPR, 4-propyl-2,5-dimethoxyamphetamine hydrochloride] | 0.047 | 9.7 ± 2.2 | 22.7 ± 2.8 | 53.6 ± 2.9 | 98.2 ± 2.3 | 58.0 ± 9.6 | 21.2 ± 3.0 | – | 0.42 | 98 | 20 | – | 2,493 ± 199 cm | 2,791 ± 131 cm | 3,680 ± 100 cm | 3,500 ± 278 cm | 1,648 ± 262 cm | 665 ± 82 cm | – | 0.011 | HTR (count/30 min) (C57BL/6 J mice [1]; 0.01 mg/kg s.c.): 6.2 ± 0.9 count; Locomotor activity (distance traveled) (C57BL/6 J mice [3]; 0.01 mg/kg s.c.): 2,728 ± 251 cm; Selectivity (binding ratios) 5-HT2A/5-HT1A (h5-HT2A): 359; Selectivity (binding ratios) 5-HT2A/5-HT2B (h5-HT2A): 11; Selectivity (binding ratios) 5-HT2A/5-HT2C (h5-HT2A): 4

Source: paper PMC12916490 (Molecular Psychiatry, 2025)
